Measurements from ChEMBL document CHEMBL1151624, “Isolation of artemisinin (qinghaosu) from Artemisia annua growing in the United States” (J Nat Prod, 1984).
Values after ≈ are worked out from the molar mass of the structure shown.

Experiments:
[1] = system: Proteus sp.; assay: Antimicrobial activity against Proteus Sp.; format: functional; conditions: Proteus sp. (in: enterobacteria)
[2] = system: Neisseria meningitidis; assay: Antimicrobial activity against Neisseria meningitidis; format: functional
[3] = system: Neisseria gonorrhoeae; assay: Antimicrobial activity against Neisseria gonorrhoeae; format: functional
[4] = system: Plasmodium falciparum; assay: Antimalarial activity against chloroquine-sensitive Plasmodium falciparum CAMP by semiautomated micro dilution assay; format: functional, organism-based
[5] = system: Plasmodium falciparum; assay: Antimalarial activity against chloroquine-resistant Plasmodium falciparum Smith by semiautomated micro dilution assay; format: functional, organism-based
[6] = system: Staphylococcus aureus; assay: Antimicrobial activity against Staphylococcus aureus; format: functional
[7] = system: Enterococcus faecalis; assay: Antimicrobial activity against Streptococcus faecalis; format: functional
[8] = system: Klebsiella; assay: Antimicrobial activity against Klebsiella; format: functional
[9] = system: Shigella dysenteriae; assay: Antimicrobial activity against Shigella dysenteriae; format: functional
[10] = system: Escherichia coli; assay: Antimicrobial activity against Escherichia coli; format: functional
[11] = system: Serratia marcescens; assay: Antimicrobial activity against Serratia marcescens; format: functional

SMILES	MIC [1]	MIC [2]	MIC [3]	IC50 [4]	IC50 [5]	MIC [6]	MIC [7]	MIC [8]	MIC [9]	MIC [10]	MIC [11]
C[C@@H]1CC[C@H]2[C@@H](C)C(=O)O[C@@H]3O[C@@]4(C)CC[C@@H]1[C@]32OO4 [ARTEMISININ]	> 32 µg/mL	> 1 µg/mL	> 1 µg/mL	< 0.0034 µg/mL	< 0.0034 µg/mL	> 32 µg/mL	> 32 µg/mL	> 32 µg/mL	> 32 µg/mL	> 32 µg/mL	> 32 µg/mL
OC(c1cc(C(F)(F)F)nc2c(C(F)(F)F)cccc12)C1CCCCN1 (stereo not drawn) [MEFLOQUINE]	–	–	–	0.0035 µg/mL (≈ 0.00925 µM)	0.0025 µg/mL (≈ 0.00661 µM)	–	–	–	–	–	–
